In patent publication US20210198277A1, “AMINE-SUBSTITUTED ARYL OR HETEROARYL COMPOUNDS” (Epizyme, Inc., priority 2016, published 2021):

Experiments:
EHMT1 = biological target: T1, EHMT1 (Homo sapiens, UniProt Q9H9B1); experiment: EHMT1 enzyme assay on peptide substrate (EHMT1 PEP); type: biochemical; conditions: read-out: EHMT1 PEP (IC50 μM)
T1 sequence (Q9H9B1 1-1298): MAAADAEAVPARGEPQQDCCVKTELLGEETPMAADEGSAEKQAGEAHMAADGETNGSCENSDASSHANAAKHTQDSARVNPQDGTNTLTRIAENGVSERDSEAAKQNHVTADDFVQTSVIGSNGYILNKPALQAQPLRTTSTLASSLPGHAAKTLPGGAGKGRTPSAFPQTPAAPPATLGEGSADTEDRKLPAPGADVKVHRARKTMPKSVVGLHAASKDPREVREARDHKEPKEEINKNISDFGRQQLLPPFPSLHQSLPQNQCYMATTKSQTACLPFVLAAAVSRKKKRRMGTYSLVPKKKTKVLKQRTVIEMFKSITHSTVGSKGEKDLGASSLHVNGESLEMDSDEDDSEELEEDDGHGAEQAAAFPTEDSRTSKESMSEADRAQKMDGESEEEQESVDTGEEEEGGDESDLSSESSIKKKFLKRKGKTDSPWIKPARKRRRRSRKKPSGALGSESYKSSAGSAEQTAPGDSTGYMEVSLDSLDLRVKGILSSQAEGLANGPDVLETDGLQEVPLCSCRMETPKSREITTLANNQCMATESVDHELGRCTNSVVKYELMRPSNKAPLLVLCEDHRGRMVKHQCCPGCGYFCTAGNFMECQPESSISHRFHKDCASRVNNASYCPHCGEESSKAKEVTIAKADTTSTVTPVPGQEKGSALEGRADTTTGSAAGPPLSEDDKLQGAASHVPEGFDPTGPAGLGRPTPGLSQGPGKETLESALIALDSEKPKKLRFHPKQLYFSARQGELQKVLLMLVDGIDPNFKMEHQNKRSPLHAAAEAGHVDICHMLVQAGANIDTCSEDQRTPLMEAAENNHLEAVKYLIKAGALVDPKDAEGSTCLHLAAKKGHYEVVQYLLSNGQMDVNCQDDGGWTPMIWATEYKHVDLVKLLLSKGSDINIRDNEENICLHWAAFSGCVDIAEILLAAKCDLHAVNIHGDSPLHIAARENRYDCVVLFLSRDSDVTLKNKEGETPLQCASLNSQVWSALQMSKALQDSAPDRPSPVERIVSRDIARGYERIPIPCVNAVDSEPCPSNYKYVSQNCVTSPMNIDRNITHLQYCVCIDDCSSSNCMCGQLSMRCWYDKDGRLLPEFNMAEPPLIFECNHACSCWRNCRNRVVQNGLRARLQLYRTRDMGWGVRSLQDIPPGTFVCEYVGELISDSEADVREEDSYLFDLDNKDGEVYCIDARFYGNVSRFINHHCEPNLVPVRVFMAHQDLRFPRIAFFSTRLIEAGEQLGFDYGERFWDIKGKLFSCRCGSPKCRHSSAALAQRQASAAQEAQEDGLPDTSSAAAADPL

human EHMT2 913-1193 = biological target: T2, human EHMT2 913-1193 (Homo sapiens, UniProt Q96KQ7); experiment: EHMT2 enzyme assay on histone peptide substrate (EHMT2 PEP); type: biochemical; conditions: recombinant human EHMT2 913-1193, histone H3 1-15 peptide, balanced conditions; read-out: EHMT2 PEP (IC50 μM)
T2 construct: recombinant purified human EHMT2 913-1193, Viva; purchased Viva
T2 sequence (Q96KQ7 913-1193): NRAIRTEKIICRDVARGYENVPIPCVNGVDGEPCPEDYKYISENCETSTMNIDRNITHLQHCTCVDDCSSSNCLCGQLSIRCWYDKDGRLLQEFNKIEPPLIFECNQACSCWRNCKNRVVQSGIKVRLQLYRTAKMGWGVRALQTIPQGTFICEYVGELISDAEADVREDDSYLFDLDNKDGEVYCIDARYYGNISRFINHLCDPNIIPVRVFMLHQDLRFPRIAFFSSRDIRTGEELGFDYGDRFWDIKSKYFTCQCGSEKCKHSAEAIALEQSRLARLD
Procedure, shortened: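 Radiometric methyltransferase read-out: ^3H-methyl transfer from ^3H-SAM onto biotinylated histone peptide, captured on streptavidin Flashplates after 60 min reaction at room temperature. Enzyme 0.031 nM, preincubated 30 min with inhibitor; buffer 20 mM Bicine pH 7.5 with 1 mM TCEP; top compound concentration 50 μM final, 2% DMSO.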

| SMILES | IC50 (EHMT1) [µM] | IC50 (human EHMT2 913-1193) [µM] |
| --- | --- | --- |
| CNc1cc(C)nc(Nc2ccc(OC)c(OC[C@@H]3CCN(C4CC4)C3)c2)n1 (single isomer, unassigned) [Compound 481] | < 0.1 | < 0.1 |
| CNc1cc(C)nc(Nc2ccc(OC)c(OC[C@H]3CCN(C4CC4)C3)c2)n1 (single isomer, unassigned) [Compound 482] | 0.1 to 1 | 0.1 to 1 |
| CNc1ccnc(Nc2ccc(OC)c(OCCOC3CC3)c2)n1 [Compound 453, N^2-(3-(2-cyclopropoxyethoxy)-4-methoxyphenyl)-N^4-methylpyrimidine-2,4-diamine] | > 10 | > 10 |
| CNc1cc(C)nc(Nc2ccc(OC)c(OC3CCN(C)CC3)c2)n1 [Compound 455] | > 10 | > 10 |
| CNc1cc(C)nc(Nc2ccc(OC)c(OCC3CCN(C4CCCC4)C3)c2)n1 (stereo not shown) [Compound 456, N^2-(3-((1-cyclopentylpyrrolidin-3-yl)methoxy)-4-methoxyphenyl)-N^4,6-dimethylpyrimidine-2,4-diamine] | 1 to 10 | 1 to 10 |
| CNc1cc(C)nc(Nc2ccc(OC)c(OCC3CCN(C4CC4)C3)c2)n1 (stereo not shown) [Compound 457] | < 0.1 | < 0.1 |
| CNc1cc(C2CCCC2)nc(Nc2ccc(OC)c(OCCCN3CCCC3)c2)n1 [Compound 458, 6-cyclopentyl-N^2-(4-methoxy-3-(3-(pyrrolidin-1-yl)propoxy)phenyl)-N^4-methylpyrimidine-2,4-diamine] | 0.1 to 1 | 0.1 to 1 |
| CNc1cc(C2CCOCC2)nc(Nc2ccc(OC)c(OCCCN3CCCC3)c2)n1 [Compound 459, N^2-(4-methoxy-3-(3-(pyrrolidin-1-yl)propoxy)phenyl)-N^4-methyl-6-(tetrahydro-2H-pyran-4-yl)pyrimidine-2,4-diamine] | 1 to 10 | 1 to 10 |
| COc1cnc(Nc2nc(C)cc3[nH]ncc23)cc1OCCCN1CCCC1 [Compound 460, N-(5-methoxy-4-(3-(pyrrolidin-1-yl)propoxy)pyridine-2-yl)-6-methyl-1H-pyrazolo[4,3-c]pyridine-4-amine] | < 0.1 | < 0.1 |
| CNc1cc(C)nc(Nc2ccc(OC)c(OCC3CCN(CCO)C3)c2)n1 (stereo not shown) [Compound 461, 2-(3-((2-methoxy-5-((4-methyl-6-(methylamino)pyrimidin-2-yl)amino)phenoxy)methyl)pyrrolidin-1-yl)ethan-1-ol] | < 0.1 | < 0.1 |
| COc1ccc(Nc2nc(C)cc(NCC3CCOCC3)n2)cc1OCC1CCN(C2CC2)C1 (stereo not shown) [Compound 462, N^2-(3-((1-cyclopropylpyrrolidin-3-yl)methoxy)-4-methoxyphenyl)-6-methyl-N^4-((tetrahydro-2H-pyran-4-yl)methyl)pyrimidine-2,4-diamine] | < 0.1 | < 0.1 |
| CNc1cc(C)nc(Nc2ccc(OC)c(OCCCN(C)C3CC3)c2)n1 [Compound 463, N^2-(3-(3-(cyclopropyl(methyl)amino)propoxy)-4-methoxyphenyl)-N^4,6-dimethylpyrimidine-2,4-diamine] | < 0.1 | < 0.1 |
| COc1cnc(Nc2cc(NCC3CCOCC3)cc(C)n2)cc1OCCCN1CCCC1 [Compound 464, N^2-(5-methoxy-4-(3-(pyrrolidin-1-yl)propoxy)pyridin-2-yl)-6-methyl-N^4-((tetrahydro-2H-pyran-4-yl)methyl)pyridine-2,4-diamine] | 0.1 to 1 | 0.1 to 1 |
| CNc1cc(C)nc(Nc2ccc(OC)c(OCCCN3CC(O)C3)c2)n1 [Compound 465, 1-(3-(2-methoxy-5-((4-methyl-6-(methylamino)pyrimidin-2-yl)amino)phenoxy)propyl)azetidin-3-ol] | < 0.1 | < 0.1 |
| CNc1cc(C)nc(Nc2ccc(OC)c(OC3CCN(C4CC4)CC3)c2)n1 [Compound 466, N^2-(3-((1-cyclopropylpiperidin-4-yl)oxy)-4-methoxyphenyl)-N^4,6-dimethylpyrimidine-2,4-diamine] | > 10 | > 10 |
| CNc1cc(C)nc(Nc2ccc(OC)c(OC[C@H]3C[C@@H](N(C)C)C3)c2)n1 [Compound 468] | 0.1 to 1 | 1 to 10 |
| CNc1cc(C)nc(Nc2ccc(OC)c(OC[C@H]3C[C@H](N(C)C)C3)c2)n1 [Compound 470] | 1 to 10 | > 10 |
| CCn1nc(Nc2nccc3[nH]ccc23)cc1COCCN1CCCC1 [Compound 471] | 1 to 10 | 1 to 10 |
| CNc1cc(Nc2cc(OC[C@@H]3CCN(C)C3)c(OC)cn2)nc(C)n1 [Compound 473] | 0.1 to 1 | 1 to 10 |

| SMILES | IC50 (EHMT1) [µM] | IC50 (human EHMT2 913-1193) [µM] |
| --- | --- | --- |
| CNc1cc(C)nc(Nc2cc(OC[C@@H]3CCN(C)C3)c(OC)cn2)c1 [Compound 475] | < 0.1 | 0.1 to 1 |
| CNc1ccnc(Nc2ccc(OC)c(OC[C@@H]3CN(C)C[C@@H]3C)c2)n1 [Compound 477] | 0.1 to 1 | 0.1 to 1 |
| CNc1ccnc(Nc2ccc(OC)c(OCc3nnc(C4CC4)[nH]3)c2)n1 [Compound 478] | > 10 | > 10 |
| CNc1ccnc(Nc2ccc(OC)c(OCc3ncn(C4CC4)n3)c2)n1 [Compound 480] | > 10 | > 10 |
| CNc1cc(C(C)C)nc(Nc2ccc(OC)c(OCCCN3CCCC3)c2)n1 [Compound 483] | < 0.1 | < 0.1 |
| COc1cnc(Nc2nc(C)cc3[nH]c(C)cc23)cc1OCCCN1CCCC1 [Compound 485] | < 0.1 | < 0.1 |
| COc1ccc(Nc2nc(C)cc3[nH]ccc23)cc1OCCCN1CCCC1 [Compound 486] | > 10 | > 10 |
| CNc1cc(C)nc(Nc2ccc(OC)c([C@H]3C[C@@H]3CN(C)C)c2)n1 [Compound 487] | 0.1 to 1 | 1 to 10 |
| CNc1cc(C)nc(Nc2ccc(OC)c([C@H]3C[C@H]3CN(C)C)c2)n1 [Compound 488] | < 0.1 | 0.1 to 1 |
| CNc1cc(C)nc(Nc2ccc(OC)c(OC(C#N)CCN3CCCC3)c2)n1 (stereo not shown) [Compound 489] | 0.1 to 1 | 1 to 10 |
| CNc1cc(C)nc(Nc2ccc(OC)c(OCCCN3CCC3)c2)n1 [Compound 490] | < 0.1 | < 0.1 |
| CNc1cc(C)nc(Nc2ccc(OC)c(OC[C@@H]3CN(C)C[C@H]3O)c2)n1 [Compound 491] | < 0.1 | 0.1 to 1 |
| CNc1cc(C)nc(Nc2ccc(OC)c(OC[C@@H]3CN(C)C[C@@H]3O)c2)n1 [Compound 492] | < 0.1 | 0.1 to 1 |
| COc1cnc(Nc2nc(C)cc3[nH]ccc23)cc1OCC1CCN(C2CC2)C1 (stereo not shown) [Compound 494] | < 0.1 | < 0.1 |
| COc1cnc(Nc2nc(C)cc3[nH]ccc23)cc1OC[C@H]1CCN(C2CC2)C1 [Compound 494a] | < 0.1 | 0.1 to 1 |
| COc1cnc(Nc2nc(C)cc3[nH]ccc23)cc1OC[C@@H]1CCN(C2CC2)C1 [Compound 495] | < 0.1 | 0.1 to 1 |
| CNc1cc(C)nc(Nc2cc(Cl)c(OC)c(OCCCN3CCCC3)c2)n1 [Compound 496] | 0.1 to 1 | 1 to 10 |
| CCc1ccc(Nc2nc(C)cc(NC)n2)cc1OCCCN1CCCC1 [Compound 497] | 0.1 to 1 | 0.1 to 1 |
| CNc1cc(C)nc(Nc2ccc(OC)c(OCCCN3CCC4(CC4)C3)c2)n1 [Compound 498, N^2-(3-(3-(5-azaspiro[2.4]heptan-5-yl)propoxy)-4-methoxyphenyl)-N^4,6-dimethylpyrimidine-2,4-diamine] | 0.1 to 1 | 1 to 10 |
